Test results taken from publication PMC10406430 (Neuro-Oncology Advances, 2023).
Where two headings read alike, the source gives them in different places. Marks after values point to notes of the source that are not given here. Values belong to the compound of their own block, whether it stands above or below them.

Columns and labels:
human glioma cell lines = conditions: single agent and in combination with TMZ; cited from earlier work
[1] = system: P-glycoprotein efflux pump; conditions: cited from earlier work
[2] = system: cytochrome P450 isozymes (CYP) 2C19, 2D6, and 3A4; assay: In vitro studies of hepatic metabolism pathways; assay type: in vitro ADME; conditions: preliminary evidence from in vitro studies (unpublished); CYP 2C19, 2D6, 3A4
[3] = mice; consistent with cLogBB prediction models; cited from earlier work
systemic solid tumors = conditions: cited from earlier work
[4] = design: method as in earlier work; conditions: animal studies and a single clinical trial; ref 1-3 (supplement list); cited from earlier work
[5] = Plasma pharmacokinetics of PAC-1 and TMZ (LC-MS/MS, non-compartmental analysis); assay type: in vivo, human; conditions: for AUC(0-inf) / CL/F / Cmax / Tmax / half-life: human, plasma, po; for AUC(0-inf): read-out: AUC0-∞, geometric mean (geometric CV%); for CL/F: read-out: CL/F, geometric mean (geometric CV%) (converted); for Cmax: read-out: Cmax, geometric mean (geometric CV%); for Tmax: read-out: Tmax, median (range); for half-life: read-out: t1/2-λ, geometric mean (geometric CV%) (converted)
Procedure: Pharmacokinetics (PK) were assessed in each dose cohort for PAC-1 following doses administered on days 7 (without TMZ) and 12 (with TMZ) of the first cycle and TMZ on day 12 of cycle 1. Both drugs were administered under fasting conditions in the morning for PAC-1 and morning or evening for TMZ. To facilitate the PK study and amplify any PK interaction between drugs, the administration of TMZ was standardized to occur in the morning on cycle 1, day 12 two hours before PAC-1. Plasma samples were collected on the mornings of days 7 and 12 of cycle 1 prior to oral ingestion of TMZ (day 12 only), 1 hour (day 12) or immediately (day 7) before administration of PAC-1 and at 0.5, 1, 2, 4, 6, 8, 10, and 24 hours after ingestion of PAC-1 (both days). The PAC-1 and TMZ concentrations in plasma were determined by validated high-performance liquid chromatography and tandem mass spectrometry (LC-MS/MS) assays. Non-compartmental analysis of the PAC-1 and TMZ plasma concentration-time data was performed using WinNonlin version 8.1 (Certara. L.P., Princeton, NJ). The analysis occurred at steady state for PAC-1 and non-steady state conditions for TMZ. Parameters included: maximum plasma concentration (Cmax), time at Cmax (Tmax), minimum plasma concentration at steady-state (Css,min), area under the PAC-1 plasma concentration-time curve over the steady-state dosing interval (AUC0-τ,ss), area under the TMZ plasma concentration-time curve from time zero to infinity (AUC0-∞), oral clearance (CL/F), volume of distribution (V/F), and terminal phase half-life (t1/2).
The PK parameters were logarithmically (natural) transformed and Css-max, Css-min, and AUC0-τ,ss normalized for a 500 mg dose across dose groups for the analysis by multiplying the parameter by the quotient of 500 mg divided by the actual dose. […] Lack of interaction was concluded when the 90% CI for the ratio was contained within the conventional bioequivalence range of 0.80 to 1.25.

glioma = conditions: PAC-1 in combination with TMZ and radiation; cited from earlier work
[6] = system: intracranial models in rodents; conditions: syngeneic and xenograft models, single agent and in combination with TMZ; cited from earlier work
[7] = PAC-1 375 mg/day oral, Cycle 1 Day 7 (alone)
[8] = PAC-1 375 mg/day oral, Cycle 1 Day 12 (with TMZ)
[9] = PAC-1 500 mg/day oral, Cycle 1 Day 7 (alone)
[10] = PAC-1 500 mg/day oral, Cycle 1 Day 12 (with TMZ)
[11] = PAC-1 625 mg/day oral, Cycle 1 Day 7 (alone)
[12] = PAC-1 625 mg/day oral, Cycle 1 Day 12 (with TMZ)
[13] = PAC-1, Cycle 1 Day 12 (with TMZ)/Cycle 1 Day 7 (alone)
[14] = PAC-1, Cycle 1 Day 12 (with TMZ)/Cycle 1 Day 7 (alone), normalized to 500 mg
[15] = 150 mg/m2, TMZ 150 mg/m^2 oral with PAC-1 375 mg/day
[16] = 150 mg/m2, TMZ 150 mg/m^2 oral with PAC-1 500 mg/day
[17] = 150 mg/m2, TMZ 150 mg/m^2 oral with PAC-1 625 mg/day

pathways of hepatic metabolism [2]: possible pathways of hepatic metabolism | increase in PAC-1 CL/F with dexamethasone co-administration ([5]; 375 and 500 mg/day groups): approximately 18% | AUCss,0-τ, geometric mean (geometric CV%) [5, 7]: 23434 (12.0) h*ng/ml | CL/F, geometric mean (geometric CV%) [5, 7]: 185 (26.6) ml/h/kg | Cmax, geometric mean (geometric CV%) [5, 7]: 1728 (19.6) ng/ml | Css-min, geometric mean (geometric CV%) [5, 7]: 647.8 (11.0) ng/ml | Tmax, median (range) [5, 7]: 3.00 (1.98-6.00) h | V/F, geometric mean (geometric CV%) [5, 7]: 6.1 (36.1) L/kg | AUCss,0-τ, geometric mean (geometric CV%) [5, 8]: 22519 (13.8) h*ng/ml | CL/F, geometric mean (geometric CV%) [5, 8]: 193 (32.9) ml/h/kg | Cmax, geometric mean (geometric CV%) [5, 8]: 1802 (19.7) ng/ml | Css-min, geometric mean (geometric CV%) [5, 8]: 525.4 (12.3) ng/ml | Tmax, median (range) [5, 8]: 3.00 (1.98 - 9.83) h | V/F, geometric mean (geometric CV%) [5, 8]: 5.4 (27.3) L/kg | t1/2-λ, geometric mean (geometric CV%) [5, 8]: 20.0 (12.0) h | AUCss,0-τ, geometric mean (geometric CV%) [5, 9]: 32823 (28.0) h*ng/ml | CL/F, geometric mean (geometric CV%) [5, 9]: 203 (38.1) ml/h/kg | Cmax, geometric mean (geometric CV%) [5, 9]: 3026 (34.0) ng/ml | Css-min, geometric mean (geometric CV%) [5, 9]: 776.8 (27.9) ng/ml | Tmax, median (range) [5, 9]: 2.34 (0.50- 5.92) h | V/F, geometric mean (geometric CV%) [5, 9]: 5.1 (53.0) L/kg | t1/2-λ, geometric mean (geometric CV%) [5, 9]: 17.6 (18.9) h | AUCss,0-τ, geometric mean (geometric CV%) [5, 10]: 34274 (13.2) h*ng/ml | CL/F, geometric mean (geometric CV%) [5, 10]: 194 (26.0) ml/h/kg | Cmax, geometric mean (geometric CV%) [5, 10]: 2938 (32.2) ng/ml | Css-min, geometric mean (geometric CV%) [5, 10]: 770.0 (19.6) ng/ml | Tmax, median (range) [5, 10]: 2.01 (1.92 - 3.07) h | V/F, geometric mean (geometric CV%) [5, 10]: 5.0 (40.3) L/kg | t1/2-λ, geometric mean (geometric CV%) [5, 10]: 17.9 (31.1) h | AUCss,0-τ, geometric mean (geometric CV%) [5, 11]: 24634 (45.2) h*ng/ml | CL/F, geometric mean (geometric CV%) [5, 11]: 322 (38.0) ml/h/kg | Cmax, geometric mean (geometric CV%) [5, 11]: 1876 (47.5) ng/ml | Css-min, geometric mean (geometric CV%) [5, 11]: 565.9 (47.4) ng/ml | Tmax, median (range) [5, 11]: 1.98 (0.82 – 2.00) h | V/F, geometric mean (geometric CV%) [5, 11]: 8.7 (40.6) L/kg | t1/2-λ, geometric mean (geometric CV%) [5, 11]: 18.7 (42.9) h | AUCss,0-τ, geometric mean (geometric CV%) [5, 12]: 21854 (39.7) h*ng/ml | CL/F, geometric mean (geometric CV%) [5, 12]: 363 (31.2) ml/h/kg | Cmax, geometric mean (geometric CV%) [5, 12]: 2124 (57.9) ng/ml | Css-min, geometric mean (geometric CV%) [5, 12]: 480.0 (40.4) ng/ml | Tmax, median (range) [5, 12]: 1.03 (1.00 - 4.17) h | V/F, geometric mean (geometric CV%) [5, 12]: 9.7 (17.0) L/kg | t1/2-λ, geometric mean (geometric CV%) [5, 12]: 18.5 (32.9) h | PK interactions between PAC-1 and TMZ ([5]; PAC-1 375, 500 or 625 mg/day with TMZ 150 mg/m^2): did not identify PK interactions | CL/F, Geometric Least-Square Mean Ratio (90%CI) [5, 13]: 1.07 (0.98, 1.17) | t1/2-λ, Geometric Least-Square Mean Ratio (90%CI) [5, 13]: 1.04 (0.90, 1.22) | AUCss,0-τ, Geometric Least-Square Mean Ratio (90%CI) [5, 14]: 0.93 (0.85, 1.02) ^† | Cmax, Geometric Least-Square Mean Ratio (90%CI) [5, 14]: 1.02 (0.85, 1.23) ^† | Css-min, Geometric Least-Square Mean Ratio (90%CI) [5, 14]: 0.86 (0.80, 0.92) ^† | dose proportionality of PAC-1 plasma concentrations ([5]; between 375 mg/day and 500 mg/day): increased proportionally | PAC-1 plasma concentrations below predicted levels ([5]; single subject in the 625 mg group, same without and with TMZ): approximately 70% | PAC-1 CL/F ([5]; subjects from the 375 and 500 mg/day groups receiving dexamethasone): 3.68 mL/min/kg
SMILES: C=CCc1cccc(/C=N/NC(=O)CN2CCN(Cc3ccccc3)CC2)c1O [PAC-1, procaspase-activating compound-1]
activity against human glioma cell lines (human glioma cell lines): promising activity | substrate of the P-glycoprotein efflux pump [1]: not a substrate | blood-brain barrier penetration [3]: significantly penetrate the blood-brain barrier | recommended phase 2 dose (RP2D) (systemic solid tumors; oral single agent PAC-1, patients with systemic solid tumors): 750 mg/day | relationship between PAC-1 dose and AUC (systemic solid tumors; single agent, doses up to 750 mg/day): linear relationship | extraction, elimination and oral bioavailability [4]: high extraction ratio, hepatically eliminated drug with low and variable oral bioavailability | responses in canine cancer patients with glioma (glioma): all treated glioma dogs had responses, including one complete response | activity in intracranial models in rodents [6]: promising activity

V/F, geometric mean (geometric CV%) ([5]; TMZ 150 mg/m^2 oral with PAC-1 375 mg/day): 0.40 (16.7) L/kg | V/F, geometric mean (geometric CV%) ([5]; TMZ 150 mg/m^2 oral with PAC-1 500 mg/day): 0.44 (15.0) L/kg | V/F, geometric mean (geometric CV%) ([5]; TMZ 150 mg/m^2 oral with PAC-1 625 mg/day): 0.44 (15.7) L/kg | AUC(0-inf) [5, 15]: 22800 ng·h/mL | CL/F [5, 15]: 2.52 mL/min/kg | Cmax [5, 15]: 7310 ng/mL | Tmax [5, 15]: 1 h | half-life [5, 15]: 1.86 h | AUC(0-inf) [5, 16]: 23800 ng·h/mL | CL/F [5, 16]: 2.63 mL/min/kg | Cmax [5, 16]: 7750 ng/mL | Tmax [5, 16]: 0.98 h | half-life [5, 16]: 1.93 h | AUC(0-inf) [5, 17]: 23900 ng·h/mL | CL/F [5, 17]: 2.67 mL/min/kg | Cmax [5, 17]: 7630 ng/mL | Tmax [5, 17]: 1 h | half-life [5, 17]: 1.92 h
SMILES: Cn1nnc2c(C(N)=O)ncn2c1=O [temozolomide, reference compound]
impact of PAC-1 dose on PK parameters of TMZ (mixed effects analyses) ([5]; PAC-1 375, 500, 625 mg/day): did not significantly (p > 0.05) impact any PK parameters of TMZ
